# Source: article PMC12514245, “Impaired migration and lung invasion of human melanoma by a novel small molecule targeting the transmembrane domain of death receptor p75^NTR” (EMBO Molecular Medicine, 2025)
# “And” between values parts separate entries of the source, which are not always exact repeats. Equal values may be shown once.
# What was measured:
# Format in all cases: cell-based, human
# A875 melanoma cells (NT) = test: Cleaved PARP western blot (apoptosis), A875 NT
# Description: (§1) One of the main biological readouts of p75^NTR activity in response to neurotrophins is the induction of caspase-mediated apoptotic cell death (Underwood and Coulson, [2008]; Friedman, [2010]; Ibáñez and Simi, [2012]).
# (§2) COS7, A875 and WM115 cell lines were cultured under standard conditions in DMEM supplemented with 10% fetal calf serum, 100 units/ml penicillin, […] streptomycin, and 2.5 mM glutamine. All cells were authenticated and tested for mycoplasma contamination. A875-NT (control) and A875 shp75 (knockdown) cell lines were described previously (Goh et al, [2018]).
# [1] = system: A875 shp75 knock-down cells; test: Cleaved PARP western blot (apoptosis), A875 shp75
# Description: as §1, §2
# A875 NT cells = test: Boyden chamber chemotaxis/invasion assay, A875 NT; conditions: for Fold change - invading cells, Mean / Fold change - invading cells, individual replicates: 1μM; for Fold change (invading cells), Mean: N=3
# Description: For Boyden chamber assay, Corning® BioCoat™ Matrigel® Invasion Chambers 8.0 µm PET Membrane were used (cat. no. 354480). A875 NT or WM115 cells were serum-starved for 16 h and then seeded at 60,000 cells per well in serum-free media under different conditions, including DMSO (vehicle) or small molecules Div17E5 or Np75-4A22 at different concentrations to the top chamber of the Matrigel-coated trans-well chamber. The pan-caspase inhibitor Q_VD_poH (at 5 µM) was also introduced in the top chamber in some experiments. Two different chemoattractants, NGF (at 50 ng/ml or 100 ng/ml as indicated) or 10% FBS were added to the bottom chamber. Assays were carried out for 8 h after which filters were fixed in 4% PFA and stained with DAPI. Cells that had remained on the top of the filter were gently scrapped away with a cotton tip. The filter lower side was imaged on an inverted fluorescence microscope and counted using ImageJ software (NIH).
# [2] = 5μM Q_VD_pOH + 10uM Div17E5, With NGF
# [3] = 5μM Q_VD_pOH + 10uM Div17E5, without NGF
compound,measurement,setting,value
Oc1ccc(-c2cncc(Nc3ccc(Br)c(Cl)c3)n2)cc1 [Div17E5],apoptosis (cleavage of PARP),A875 melanoma cells (NT),induced apoptosis
same,"Cleaved PARP normalized to DMSO, individual replicates",A875 melanoma cells (NT); 0.5uM,2.699 and 3.180 and 5.109
same,"Cleaved PARP/actin, individual replicates",A875 melanoma cells (NT); 0.5uM,0.023 and 0.026 and 0.037
same,"Cleaved PARP normalized to DMSO, Average",A875 melanoma cells (NT); 0.5μM,3.662
same,"Cleaved PARP normalized to DMSO, individual replicates",A875 melanoma cells (NT); 1uM,10.573 and 9.243 and 5.315
same,"Cleaved PARP/actin, individual replicates",A875 melanoma cells (NT); 1uM,0.078 and 0.043 and 0.077
same,"Cleaved PARP normalized to DMSO, Average",A875 melanoma cells (NT); 1μM,8.377
same,"Cleaved PARP normalized to DMSO, individual replicates",A875 melanoma cells (NT); 2uM,25.774 and 23.617 and 17.703
same,"Cleaved PARP/actin, individual replicates",A875 melanoma cells (NT); 2uM,0.187 and 0.200 and 0.142
same,"Cleaved PARP normalized to DMSO, Average",A875 melanoma cells (NT); 2μM,22.365
same,"Cleaved PARP normalized to DMSO, individual replicates",A875 melanoma cells (NT); 5uM,31.874 and 36.234 and 27.415
same,"Cleaved PARP/actin, individual replicates",A875 melanoma cells (NT); 5uM,0.231 and 0.306 and 0.220
same,"Cleaved PARP normalized to DMSO, Average",A875 melanoma cells (NT); 5μM,31.841
same,apoptosis (cleavage of PARP) after p75NTR knock-down,[1],significantly reduced the pro-apoptotic effects
same,NGF-induced chemotaxis,A875 NT cells,strongly inhibited
same,background cell migration in the absence of NGF,A875 NT cells,did not significantly affect background cell migration
same,"Fold change - invading cells, Mean",A875 NT cells; NGF,1.91
same,"Fold change - invading cells, individual replicates",A875 NT cells; NGF,1.80 and 1.91 and 2.02
same,"Fold change - invading cells, Mean",A875 NT cells; no NGF,0.91
same,"Fold change - invading cells, individual replicates",A875 NT cells; no NGF,0.87 and 0.90 and 0.95
same,NGF activity in Boyden chamber assay of cell chemotaxis,"A875 NT cells; 1 μM, NGF 50 ng/ml",inactive
same,"Fold change (invading cells), n1-n3",A875 NT cells; [2],0.46 Fold and 0.84 Fold and 0.68 Fold
same,"Fold change (invading cells), Mean",A875 NT cells; [2],0.66 Fold
same,"Fold change (invading cells), n1-n3",A875 NT cells; [3],0.94 Fold and 0.80 Fold
same,"Fold change (invading cells), Mean",A875 NT cells; [3],0.89 Fold
same,"Fold change (invading cells), n1-n3","A875 NT cells; 10μM Div17E5, With NGF",0.42 Fold and 0.37 Fold and 0.47 Fold
same,"Fold change (invading cells), Mean","A875 NT cells; 10μM Div17E5, With NGF",0.42 Fold
same,"Fold change (invading cells), n1-n3","A875 NT cells; 10μM Div17E5, without NGF",0.87 Fold and 0.75 Fold and 0.76 Fold
same,"Fold change (invading cells), Mean","A875 NT cells; 10μM Div17E5, without NGF",0.79 Fold
